Experimental data from patent US12263169B2, “Methods of treating neuroepithelial tumors using selective glucocorticoid receptor modulators” (Corcept Therapeutics, Inc., priority 2017, dated 2025).
pIC50: −log10 of the molar value.

What was measured:
[1] = test system: meningioma; assay: Treating a meningioma patient with SGRM, tumor load monitored by enhanced MRI; format: in vivo, human; settings: 200 mg once a day for eight weeks
Protocol: A patient complains of tinnitus and right-sided hearing loss for 6 months. […] They are treated with CORT125134 at a dose of 200 mg once a day for eight weeks. Their tumor load is monitored using enhanced MRI before, during and after the treatment.
A patient complains of tinnitus and right-sided hearing loss for 6 months. […] They are treated with CORT125281 at a dose of 200 mg once a day for eight weeks. Their tumor load is monitored using enhanced MRI before, during and after the treatment.

[2] = test system: GBM4; assay: Cell growth inhibition (Alamar Blue cell viability assay); format: cell-based; settings: Homo sapiens, GBM4 patient-derived neurosphere line, 72 hours treatment, triplicate
Protocol: (§1) The effect of GRMs on the growth in culture of human and mouse glioblastoma cells was examined. The GRMs mifepristone and CORT125134 inhibited growth in culture of each of five different glioblastoma cell lines. The highest drug concentration tested was 50 μM. The cell lines used were the Standard Serum Human glioblastoma (GBM) Cell lines: U251, GL261, U87, and the patient-derived neurosphere cell lines GBM8 and GBM4. Cells were plated at cell numbers of 2000 cells/well, in a 96-well format; the experiments were done in triplicate. Cell growth inhibition by the applied drugs was assayed. Cell growth inhibition was quantified by the Alamar Blue method using a commercial assay kit. Cell growth inhibition was determined (“read out”) after 72 hours of treatment. […] Cell Cultures: The human glioblastoma cell lines (obtained from the American Type Culture Collection (ATCC), Manassas VA, USA) tested were U251 and U87 (human), and GL261 (mouse). These were grown as an adherent monolayer cultured in DMEM supplemented with 10% fetal bovine serum (FBS) (Seradigm, a subsidiary of VWR, Radnor PA, USA) and 1% glutamine pen-strep (Omega Scientific, Tarzana CA, USA). GBM8 (passage 12) and GBM4 are patient derived glioma stem cell lines obtained and cultured as neurospheres (spheroids) as described by Galli et al., “Isolation and characterization of tumorigenic, stem-like neural precursors from human glioblastoma” Cancer Res 2004, 64 (19), 7011-21 and Lee et al., “Tumor stem cells derived from glioblastomas cultured in bFGF and EGF more closely mirror the phenotype and genotype of primary tumors than do serum-cultured cell lines” Cancer Cell 2006, 9 (5), 391-403. Initial GBM surgical samples were dissociated in stem cell isolation medium containing human recombinant EGF ([…]), human bFGF ([…]) and heparin (2 μg/ml), washed, filtered through a 30 μm mesh and plated onto ultra-low adherence flasks at a concentration of 5×10^5 to 1.5×10^6 viable cells/ml. Sphere cultures were passaged by dissociation, washing and resuspension in neural stem cell culture medium (NeuroCult™ NS-A Proliferation kit #05751, Stemcell Technologies, Vancouver, BC, CA), according to the manufacturer's instructions. Cell Viability Assay: Cells were seeded into 96-well plates at a density of 2000 cells per well. Compounds were added 24 hours after the seeding of cells. All compounds were diluted in 1% FBS/DMEM. The control was treated with media alone. After 3 days incubation (37° C./5% CO2) Alamar Blue (#BUF012B, AbDSerotec, Kidlington, UK) was added according to the manufacturer's protocol, directly to the medium and placed back in the tissue culture incubator (37° C. 5% CO2). After 3-18 hours fluorescent signal was read at 544ex/590em (SpectraMax i3x plate reader, Molecular Devices, San Jose CA, USA) to determine the number of viable cells. The IC50 values were calculated using commercial software (Prism 5 Software, GraphPad, La Jolla CA, USA). After 24 hours post incubation, cells were treated with drugs at various concentrations for 72 hours. Cell viability was measured after 72 hours by Alamar Blue and results reported as triplicate experiment. The following Table presents the IC50 values as determined in these experiments.

[3] = test system: GL261; assay: as above; format: cell-based; settings: Mus musculus, GL261 standard GBM line, 72 hours treatment, triplicate
Protocol: as §1

[4] = test system: GBM8; assay: as above; format: cell-based; settings: Homo sapiens, GBM8 patient-derived neurosphere line, 72 hours treatment, triplicate
Protocol: as §1

[5] = test system: U251; assay: as above; format: cell-based; settings: Homo sapiens, U-251, U251 standard GBM line, 72 hours treatment, triplicate
Protocol: as §1

[6] = test system: U87; assay: as above; format: cell-based; settings: Homo sapiens, U-87 MG, U87 standard GBM line, 72 hours treatment, triplicate
Protocol: as §1

[7] = test system: glioblastoma cell lines U251, GL261, U87, GBM8 and GBM4; assay: Cell growth inhibition, summary over five glioblastoma cell lines; format: cell-based, human and mouse; settings: range over five glioblastoma cell lines, 72 hours treatment, Alamar Blue; read-out: half-maximal inhibition concentration (IC50) values, range over the cell lines
Protocol: The effect of GRMs on the growth in culture of human and mouse glioblastoma cells was examined. The GRMs mifepristone and CORT125134 inhibited growth in culture of each of five different glioblastoma cell lines. The highest drug concentration tested was 50 μM. The cell lines used were the Standard Serum Human glioblastoma (GBM) Cell lines: U251, GL261, U87, and the patient-derived neurosphere cell lines GBM8 and GBM4. Cells were plated at cell numbers of 2000 cells/well, in a 96-well format; the experiments were done in triplicate. Cell growth inhibition by the applied drugs was assayed. Cell growth inhibition was quantified by the Alamar Blue method using a commercial assay kit. Cell growth inhibition was determined (“read out”) after 72 hours of treatment. […] Cell Cultures: The human glioblastoma cell lines (obtained from the American Type Culture Collection (ATCC), Manassas VA, USA) tested were U251 and U87 (human), and GL261 (mouse). […] After 3-18 hours fluorescent signal was read at 544ex/590em (SpectraMax i3x plate reader, Molecular Devices, San Jose CA, USA) to determine the number of viable cells. The IC50 values were calculated using commercial software (Prism 5 Software, GraphPad, La Jolla CA, USA). […] Cell viability was measured after 72 hours by Alamar Blue and results reported as triplicate experiment. The following Table presents the IC50 values as determined in these experiments.

| IC50 [5] [µM] | IC50 [6] [µM] | pIC50 [7] | SMILES | reduction of tumor size as compared to baseline at the end of the treatment period [1] | IC50 [2] [µM] | IC50 [3] [µM] | IC50 [4] [µM] |
| --- | --- | --- | --- | --- | --- | --- | --- |
| 12.5 | 5.42 | 4.54 to 5.30 | Cn1cc(S(=O)(=O)N2CCC3=Cc4c(cnn4-c4ccc(F)cc4)C[C@]3(C(=O)c3cc(C(F)(F)F)ccn3)C2)cn1 [CORT125134, (R)-(1-(4-fluorophenyl)-6-((1-methyl-1H-pyrazol-4-yl)sulfonyl)-4,4a,5,6,7,8-hexahydro-1H-pyrazolo[3,4-g]isoquinolin-4a-yl)(4-(trifluoromethyl)pyridin-2-yl)methanone] | more than 50% | 20.7 | 5.86 | 29.1 |
| – | – | – | Cn1ncc(S(=O)(=O)N2CC[C@H]3Cc4c(cnn4-c4ccc(F)cc4)C[C@]3(C(=O)c3cc(C(F)(F)F)ccn3)C2)n1 [CORT125281, ((4aR,8aS)-1-(4-fluorophenyl)-6-((2-methyl-2H-1,2,3-triazol-4-yl)sulfonyl)-4,4a,5,6,7,8,8a,9-octahydro-1H-pyrazolo[3,4-g]isoquinolin-4a-yl)(4-(trifluoromethyl)pyridin-2-yl)methanone] | more than 50% | – | – | – |
| 18.4 | 18.4 | 4.62 to 4.80 | CC#C[C@]1(O)CC[C@H]2[C@@H]3CCC4=CC(=O)CCC4=C3[C@@H](c3ccc(N(C)C)cc3)C[C@@]21C [Mifepristone, 17-β-hydrox-11-β-(4-dimethyl-aminophenyl)17-α-(1-propynyl)estra-4,9-dien-3-one, reference compound] | – | 24.1 | 15.7 | 24 |
